Here are results for 4 compounds from PubChem BioAssay (NCI).

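Grown in 96-well plates, cells were treated for 48 hours with each compound at five concentrations. Insufficient inhibition: endpoint recorded as highest concentration tested. The concentration for 50% growth inhibition is given as GI50. Definition used: TGI = concentration required for complete inhibition of growth.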

Some test systems named below: A498 renal; CCRF-CEM leukemia; COLO 205 colon; HCT-15 colon; HL-60(TB) leukemia; M14 melanoma; MCF7 breast; T-47D breast; HCC-2998 colon; SN12C renal.
What all share (experiment): growth of human tumour cells (NCI), 48 h

In the case of `Cc1ccc(N(CC(=O)Nc2ccc(S(=O)(=O)N3CCC(N4CCCC4)CC3)cc2)S(=O)(=O)c2ccc(Cl)cc2)cc1`, the GI50 in the experiment on A498 renal is 1.44 µM; in the experiment on CCRF-CEM leukemia it was 1.9 µM; in the experiment on COLO 205 colon, 1.75 µM; in the experiment with HCT-15 colon it was 1.43 µM; in the experiment on HL-60(TB) leukemia, 1.73 µM; with M14 melanoma it was 1.71 µM. Moreover, the GI50 in the experiment with MCF7 breast was 1.6 µM; in the experiment on T-47D breast it was 1.74 µM. Also, the TGI with A498 renal is 2.84 µM; with CCRF-CEM leukemia it was 6.35 µM; in the experiment with COLO 205 colon, 3.39 µM; in the experiment with HCT-15 colon, 2.93 µM; with HL-60(TB) leukemia, 4.33 µM; in the experiment with M14 melanoma it was 3.39 µM. Besides, the figures for the TGI in the experiment with MCF7 breast and in the experiment with T-47D breast were 3.6 µM and 3.91 µM, respectively.
Take `O=C1Nc2ccc(Cl)cc2/C1=C\c1c(Cl)nc2sccn12`: the TGI was 8.66 µM with A498 renal; 62.3 µM in the experiment with CCRF-CEM leukemia; more than 100 µM with HCC-2998 colon; more than 100 µM with HCT-15 colon; 33.7 µM with HL-60(TB) leukemia; more than 100 µM in the experiment on M14 melanoma. The TGI with SN12C renal and in the experiment on T-47D breast was more than 100 µM throughout.
In the case of `O=C(Nc1ccc(-n2ccc3c(NC(=O)c4ccccc4)ncnc32)cc1)Nc1cccc(Cl)c1Cl`, the GI50 with A498 renal was 0.752 µM; in the experiment with CCRF-CEM leukemia it was 0.531 µM; with COLO 205 colon, 1.75 µM; in the experiment on HCC-2998 colon it was 2.99 µM; with HCT-15 colon, 0.156 µM; in the experiment on HL-60(TB) leukemia, 13.6 µM. Also, the GI50 in the experiment on M14 melanoma is 0.973 µM; in the experiment on MCF7 breast, 1.12 µM; in the experiment on SN12C renal it was 1.08 µM; with T-47D breast, 2.17 µM. Also, the TGI in the experiment with A498 renal was 2.04 µM; in the experiment on CCRF-CEM leukemia, 3.21 µM; in the experiment on COLO 205 colon it was 7.97 µM; in the experiment on HCC-2998 colon, 19.9 µM; with HCT-15 colon it was 5.42 µM; in the experiment with HL-60(TB) leukemia, more than 50 µM. The TGI was determined as 2.11 µM in the experiment on M14 melanoma, 5.81 µM with MCF7 breast, 2.32 µM with SN12C renal and 9.22 µM with T-47D breast.
For `CC(=O)NC1=C[C@@H]([C@H]2COC(C)(C)O2)OC1=O`, the TGI in the experiment with A498 renal, in the experiment on CCRF-CEM leukemia, with COLO 205 colon, in the experiment on HCC-2998 colon, in the experiment with HCT-15 colon and with HL-60(TB) leukemia was more than 100 µM throughout. Further, the TGI in the experiment on MCF7 breast and in the experiment with SN12C renal was more than 100 µM throughout.
